One data set concerns the target T1, Kv4.3 (Homo sapiens, UniProt Q9UK17).
T1 sequence (Q9UK17 1-655): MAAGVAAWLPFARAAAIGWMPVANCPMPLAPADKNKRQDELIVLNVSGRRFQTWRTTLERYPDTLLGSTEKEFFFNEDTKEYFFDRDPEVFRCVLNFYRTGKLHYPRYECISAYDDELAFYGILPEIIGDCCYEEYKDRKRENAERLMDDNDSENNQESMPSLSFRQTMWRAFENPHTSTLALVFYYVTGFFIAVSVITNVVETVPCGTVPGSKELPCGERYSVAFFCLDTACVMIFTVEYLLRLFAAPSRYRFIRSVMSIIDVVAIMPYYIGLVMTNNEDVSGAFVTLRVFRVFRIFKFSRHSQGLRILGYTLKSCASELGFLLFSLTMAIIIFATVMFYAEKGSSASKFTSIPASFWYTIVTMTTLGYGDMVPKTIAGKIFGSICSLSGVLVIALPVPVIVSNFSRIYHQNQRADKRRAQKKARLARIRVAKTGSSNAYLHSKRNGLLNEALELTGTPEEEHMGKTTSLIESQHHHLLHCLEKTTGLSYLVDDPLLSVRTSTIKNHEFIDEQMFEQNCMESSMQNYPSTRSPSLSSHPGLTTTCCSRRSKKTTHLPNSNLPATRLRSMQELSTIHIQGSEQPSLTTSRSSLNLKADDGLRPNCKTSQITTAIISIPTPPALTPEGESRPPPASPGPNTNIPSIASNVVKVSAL
As to conditions: literature, Wang et al.; cited from earlier work.

A further data set addresses KCNQ1 channel (Homo sapiens, UniProt P51787). As to conditions: literature, Wang et al.; cited from earlier work.
A further data set deals with M channel (=KCNQ2+KCNQ3) (Homo sapiens, UniProt O43525+O43526). The settings on record: literature, Wang et al.; cited from earlier work.
For the next data set, the target named is erg1 (Homo sapiens, UniProt Q12809). As to conditions: literature, Wang et al.; cited from earlier work.
The next data set concerns elk1. As to conditions: literature, Wang et al.; cited from earlier work.
For a further data set, the target named is T2, eag1 (Homo sapiens, UniProt O95259).
T2 sequence (O95259 1-989): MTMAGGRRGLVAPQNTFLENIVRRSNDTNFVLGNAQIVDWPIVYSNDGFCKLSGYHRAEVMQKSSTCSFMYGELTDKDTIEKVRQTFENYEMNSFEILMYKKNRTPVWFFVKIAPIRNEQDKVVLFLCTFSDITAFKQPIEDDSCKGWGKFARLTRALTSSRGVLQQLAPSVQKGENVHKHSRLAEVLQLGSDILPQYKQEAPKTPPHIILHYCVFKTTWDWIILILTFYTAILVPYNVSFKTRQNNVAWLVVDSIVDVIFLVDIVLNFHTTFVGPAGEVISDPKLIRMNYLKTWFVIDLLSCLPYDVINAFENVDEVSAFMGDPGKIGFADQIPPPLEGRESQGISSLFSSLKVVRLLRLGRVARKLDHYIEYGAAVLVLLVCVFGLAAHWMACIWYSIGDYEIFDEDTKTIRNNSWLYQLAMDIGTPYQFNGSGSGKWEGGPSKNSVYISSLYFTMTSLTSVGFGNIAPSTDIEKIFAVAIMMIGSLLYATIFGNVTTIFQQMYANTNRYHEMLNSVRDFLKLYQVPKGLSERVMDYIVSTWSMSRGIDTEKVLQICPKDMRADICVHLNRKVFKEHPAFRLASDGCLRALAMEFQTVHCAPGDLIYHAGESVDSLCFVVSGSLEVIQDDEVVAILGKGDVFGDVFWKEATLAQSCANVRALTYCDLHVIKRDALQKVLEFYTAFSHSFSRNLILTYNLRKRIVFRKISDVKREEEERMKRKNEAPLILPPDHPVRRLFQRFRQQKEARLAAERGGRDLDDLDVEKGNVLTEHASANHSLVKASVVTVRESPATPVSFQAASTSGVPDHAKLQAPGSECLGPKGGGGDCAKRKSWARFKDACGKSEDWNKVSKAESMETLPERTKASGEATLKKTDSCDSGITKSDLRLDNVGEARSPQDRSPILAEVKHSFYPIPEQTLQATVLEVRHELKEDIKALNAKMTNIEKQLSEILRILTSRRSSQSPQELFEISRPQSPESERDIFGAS
As to conditions: literature, Wang et al.; cited from earlier work.

The next data set has as its target T3, erg3 (Homo sapiens, UniProt Q9NS40).
T3 sequence (Q9NS40 1-1196): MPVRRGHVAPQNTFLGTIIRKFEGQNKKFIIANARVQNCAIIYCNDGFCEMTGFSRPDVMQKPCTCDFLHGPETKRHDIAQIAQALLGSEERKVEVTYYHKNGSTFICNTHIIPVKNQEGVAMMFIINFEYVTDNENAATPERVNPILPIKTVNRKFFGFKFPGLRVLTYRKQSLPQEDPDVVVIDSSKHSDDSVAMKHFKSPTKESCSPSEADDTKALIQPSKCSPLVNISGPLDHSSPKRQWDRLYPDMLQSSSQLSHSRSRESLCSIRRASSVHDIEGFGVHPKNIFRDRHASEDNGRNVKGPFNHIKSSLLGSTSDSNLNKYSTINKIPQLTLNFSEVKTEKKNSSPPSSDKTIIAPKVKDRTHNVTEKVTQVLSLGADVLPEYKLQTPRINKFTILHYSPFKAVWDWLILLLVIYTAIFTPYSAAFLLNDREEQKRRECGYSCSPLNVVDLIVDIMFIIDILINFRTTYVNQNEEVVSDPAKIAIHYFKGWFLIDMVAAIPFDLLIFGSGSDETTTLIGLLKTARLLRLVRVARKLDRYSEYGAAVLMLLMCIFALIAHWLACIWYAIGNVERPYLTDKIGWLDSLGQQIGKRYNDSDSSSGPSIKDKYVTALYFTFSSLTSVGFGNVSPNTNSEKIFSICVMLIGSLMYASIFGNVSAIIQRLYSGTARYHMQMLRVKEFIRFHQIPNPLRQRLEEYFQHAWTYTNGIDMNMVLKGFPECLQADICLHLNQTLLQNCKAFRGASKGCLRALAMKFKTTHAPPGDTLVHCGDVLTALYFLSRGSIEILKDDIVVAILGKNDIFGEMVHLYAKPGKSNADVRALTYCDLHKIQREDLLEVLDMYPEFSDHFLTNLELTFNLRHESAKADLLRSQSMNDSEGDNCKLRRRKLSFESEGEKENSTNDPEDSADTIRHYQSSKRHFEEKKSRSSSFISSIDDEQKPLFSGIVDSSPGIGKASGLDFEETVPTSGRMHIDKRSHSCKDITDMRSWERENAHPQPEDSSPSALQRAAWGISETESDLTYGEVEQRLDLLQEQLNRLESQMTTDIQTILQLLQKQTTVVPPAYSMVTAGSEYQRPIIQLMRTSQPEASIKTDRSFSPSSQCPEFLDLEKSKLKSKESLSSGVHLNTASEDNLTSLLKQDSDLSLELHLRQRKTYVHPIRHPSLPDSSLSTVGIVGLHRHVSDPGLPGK
As to conditions: literature, Wang et al.; cited from earlier work.

A further data set addresses Kv1.2 (Homo sapiens, UniProt P16389). The settings on record: literature, Wang et al.; cited from earlier work.
The target in another data set is T4, r-erg1 (Rattus norvegicus, UniProt O08962).
T4 construct: expressed in transfected cells; host or cells: CHO cells (liposome cDNA transfection)
T4 sequence (O08962 1-1163): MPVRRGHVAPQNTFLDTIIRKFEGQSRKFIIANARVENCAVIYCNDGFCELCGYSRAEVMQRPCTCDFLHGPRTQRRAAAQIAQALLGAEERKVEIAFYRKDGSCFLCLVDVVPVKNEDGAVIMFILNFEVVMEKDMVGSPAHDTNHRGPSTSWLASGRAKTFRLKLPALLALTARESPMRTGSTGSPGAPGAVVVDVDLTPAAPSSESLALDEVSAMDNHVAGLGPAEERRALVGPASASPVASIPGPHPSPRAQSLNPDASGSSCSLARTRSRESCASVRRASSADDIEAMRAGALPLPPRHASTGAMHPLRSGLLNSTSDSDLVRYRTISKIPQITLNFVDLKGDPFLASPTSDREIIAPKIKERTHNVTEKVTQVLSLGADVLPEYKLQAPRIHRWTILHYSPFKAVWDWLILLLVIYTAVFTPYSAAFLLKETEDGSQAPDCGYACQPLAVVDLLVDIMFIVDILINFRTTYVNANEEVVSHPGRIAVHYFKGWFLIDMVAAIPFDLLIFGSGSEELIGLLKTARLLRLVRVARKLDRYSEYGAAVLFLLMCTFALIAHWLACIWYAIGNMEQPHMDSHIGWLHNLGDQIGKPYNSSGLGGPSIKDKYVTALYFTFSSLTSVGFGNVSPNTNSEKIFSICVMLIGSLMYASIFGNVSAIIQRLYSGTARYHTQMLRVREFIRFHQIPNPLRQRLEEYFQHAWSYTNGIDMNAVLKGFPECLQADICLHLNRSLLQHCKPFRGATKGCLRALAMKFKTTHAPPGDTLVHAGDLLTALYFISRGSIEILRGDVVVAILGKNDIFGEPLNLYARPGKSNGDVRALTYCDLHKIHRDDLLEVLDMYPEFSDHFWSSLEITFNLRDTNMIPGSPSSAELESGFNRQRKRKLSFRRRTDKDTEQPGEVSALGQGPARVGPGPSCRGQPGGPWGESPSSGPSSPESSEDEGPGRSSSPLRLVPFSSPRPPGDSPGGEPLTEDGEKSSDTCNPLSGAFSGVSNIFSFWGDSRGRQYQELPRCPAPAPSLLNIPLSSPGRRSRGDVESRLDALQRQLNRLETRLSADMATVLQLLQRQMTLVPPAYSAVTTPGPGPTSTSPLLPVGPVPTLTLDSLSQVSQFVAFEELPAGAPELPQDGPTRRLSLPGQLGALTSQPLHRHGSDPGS
Description: Effect of retigabine on cloned potassium channels, patch clamp. The class given is cell-based. As to conditions: r-erg1, CHO cells. As to the method:
For the experiments with xenopus oocytes, the experimental amounts known to be successful for transfections i.e. 500 pg to 37 ng, of hereditary information (cRNA) for the channel to be investigated, which is known from the literature, present as clone and replicated by means of a polymerase chain reaction, was applied by pressure injection into the egg cells. After this treatment, the oocytes were placed in a nutrient medium and kept alive. After one week, the egg cells were brought individually into a recording chamber and, using the two-electrode voltage clamp method, investigated electrophysiologically. For this purpose, the egg cells, starting out from a holding potential of −80 mV, were hyperpolarized and depolarized for, in each case, 2 seconds, in 10 mV steps to different membrane potentials between −130 and +30 mV and the resulting membrane current was measured. These experiments were carried out in the presence of a control solution as well as of 1, 10 and 100 μM of retigabine and the current voltage curves obtained were compared. […] In addition, in accordance with a method already described (Rundfeldt, 1999b), retigabine was added at a concentration of 10 μM to cells, which were slightly depolarized (−60 or −50 mV), and the current induced thereby was quantified. The latter method was employed in order to quantify the currents shown in the Table and induced by retigabine. […]
Background: Patch clamp records ionic current or voltage across a cell membrane.

Consider three compounds from patent US6472165B1, “Modulatory binding site in potassium channels for screening and finding new active ingredients” (Arzneimittelwerk Dresden GmbH, priority 1999, dated 2002).

Each structure is given as a SMILES string.

erg1, sequence (Q12809 whole entry): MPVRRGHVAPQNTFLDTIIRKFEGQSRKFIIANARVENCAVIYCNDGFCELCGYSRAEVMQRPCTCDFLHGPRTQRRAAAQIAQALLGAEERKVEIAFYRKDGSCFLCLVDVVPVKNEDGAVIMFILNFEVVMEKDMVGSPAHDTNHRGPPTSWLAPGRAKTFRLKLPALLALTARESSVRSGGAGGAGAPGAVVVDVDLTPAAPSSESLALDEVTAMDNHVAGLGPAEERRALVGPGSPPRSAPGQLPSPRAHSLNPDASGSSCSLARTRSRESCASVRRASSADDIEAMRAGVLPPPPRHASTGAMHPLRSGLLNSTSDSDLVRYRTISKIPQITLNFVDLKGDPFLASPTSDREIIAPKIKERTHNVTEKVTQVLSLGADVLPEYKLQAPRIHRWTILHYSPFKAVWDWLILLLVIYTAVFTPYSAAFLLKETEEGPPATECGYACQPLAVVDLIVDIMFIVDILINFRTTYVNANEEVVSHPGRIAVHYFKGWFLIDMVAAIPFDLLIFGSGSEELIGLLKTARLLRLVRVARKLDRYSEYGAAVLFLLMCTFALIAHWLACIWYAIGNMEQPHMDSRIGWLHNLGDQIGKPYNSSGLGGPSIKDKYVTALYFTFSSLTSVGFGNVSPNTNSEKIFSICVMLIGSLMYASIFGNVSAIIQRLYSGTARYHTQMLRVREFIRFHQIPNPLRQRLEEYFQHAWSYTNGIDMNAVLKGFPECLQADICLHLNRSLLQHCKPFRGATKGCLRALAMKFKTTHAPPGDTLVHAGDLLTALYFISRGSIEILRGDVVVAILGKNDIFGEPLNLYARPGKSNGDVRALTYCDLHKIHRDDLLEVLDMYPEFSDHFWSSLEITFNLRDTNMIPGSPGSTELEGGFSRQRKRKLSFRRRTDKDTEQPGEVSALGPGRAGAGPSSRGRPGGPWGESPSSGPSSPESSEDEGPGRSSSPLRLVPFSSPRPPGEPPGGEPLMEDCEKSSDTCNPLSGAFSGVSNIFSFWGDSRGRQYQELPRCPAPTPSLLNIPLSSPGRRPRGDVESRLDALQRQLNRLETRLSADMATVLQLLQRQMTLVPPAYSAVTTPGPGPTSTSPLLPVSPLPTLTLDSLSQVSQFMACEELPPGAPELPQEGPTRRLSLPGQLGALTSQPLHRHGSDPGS
Kv1.2, sequence (P16389 whole entry): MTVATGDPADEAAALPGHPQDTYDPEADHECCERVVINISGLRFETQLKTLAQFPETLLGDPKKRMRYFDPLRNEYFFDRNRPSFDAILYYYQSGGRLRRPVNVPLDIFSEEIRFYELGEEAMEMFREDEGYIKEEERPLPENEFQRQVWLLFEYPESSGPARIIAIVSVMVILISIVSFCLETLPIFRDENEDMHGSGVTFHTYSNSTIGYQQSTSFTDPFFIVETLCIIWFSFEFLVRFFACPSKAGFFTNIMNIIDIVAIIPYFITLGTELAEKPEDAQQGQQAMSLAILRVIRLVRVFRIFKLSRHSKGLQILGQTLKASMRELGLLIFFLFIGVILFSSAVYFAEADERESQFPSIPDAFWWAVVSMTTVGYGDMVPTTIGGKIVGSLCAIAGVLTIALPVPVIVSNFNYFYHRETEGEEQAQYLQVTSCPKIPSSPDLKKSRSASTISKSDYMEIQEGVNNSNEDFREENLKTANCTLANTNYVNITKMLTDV

Consider `O=C1c2ccccc2C(Cc2ccncc2)(Cc2ccncc2)c2ccccc21` [XE991], for which, at Kv4.3, the “Effect on Kv4.3, with affinity similar to that for the M channel” value was “inhibits”. The “Effect on KCNQ1, with affinity similar to that for the M channel” value on KCNQ1 channel is “inhibits”. Besides, the “Effect on the M channel” value at M channel (=KCNQ2+KCNQ3) is listed as “block”.

Turning to `O=C1N(c2ccccc2)c2ccccc2C1(Cc1ccncc1)Cc1ccncc1` [linopirdine], on Kv4.3, the “Effect on Kv4.3, with affinity similar to that for the M channel” value was “blocked”. Moreover, the “Effect on KCNQ1, with affinity similar to that for the M channel” value on KCNQ1 channel is given as “blocked”. Besides, the “Effect on erg1, with affinity similar to that for the M channel” value on erg1 was “blocked”. Also, the “Effect on the M channel” value at M channel (=KCNQ2+KCNQ3) is “blocks”. In the data set with elk1, the “Effect on elk1, with affinity similar to that for the M channel” value was “blocked”. The “Effect on eag1, with affinity similar to that for the M channel” value at eag1 was “blocked”. Also, on erg3, the “Effect on erg3, with affinity similar to that for the M channel” value is reported as “blocked”. Moreover, the “Effect on Kv1.2, with affinity similar to that for the M channel” value on Kv1.2 is “blocked”.

In the case of `CCOC(=O)Nc1ccc(NCc2ccc(F)cc2)cc1N` [retigabine, 2-amino-4-(4-fluorobenzylamino)-1-ethoxycarbonyl-aminobenzene], at r-erg1, the “Effect of 10 μM of Retigabine” value is reported as “No effect”.
